In PMC8241002, “A tumor-targeting cRGD-EGFR siRNA conjugate and its anti-tumor effect on glioblastoma in vitro and in vivo” (Drug Delivery, 2017):
Oligonucleotides are written 5' to 3', each unit as a sugar letter and its base; * is a phosphorothioate linkage, no mark a phosphodiester; rarer units and linkages stand in square brackets, end groups in braces. Plain capitals give the bases only. d = 2'-deoxy (DNA); m = 2'-O-methyl; r = 2'-OH (RNA)

Assays:
[1] = Serum stability in mouse serum (agarose gel electrophoresis); format: in vitro ADME; conditions: 37 °C
Method: Five microliters of 20 μM cRGD-siEGFR or EGFR siRNA was mixed with 5 μL of mouse serum and incubated at 37 °C for 0, 12, 24, 36 and 48 h. Aliquots were taken at each of the time points and subjected to electrophoresis in 1.2% non-denaturing agarose gels.
(§1) Figure S1. The characterization of cRGD-siEGFR conjugates and silencing efficiency of EGFR siRNA sequences. (A) The identification of cRGD-siEGFR by HPLC-MS. The measured mass of the sense strand conjugated with cRGD is 7923.4 Da (predicted mass is 7921.4 Da). (B) The analysis of purified cRGD-siEGFR with RP-HPLC. The purity of cRGD-siEGFR, calculated by the peak area normalization method, was 88.0%. (C) The serum stability of cRGD-siEGFR and EGFR siRNA sequences. Molecules were incubated in mouse serum at 37°C for the indicated time periods and then analyzed using agarose (1.2%) gel electrophoresis. (D) Gene silencing efficiency. U87MG cells were treated for 48 h with EGFR-targeting siRNAs, complexed with Lipofectamine 2000. The expression level of EGFR mRNA was analyzed by qRT-PCR. * P<0.05 vs. control group, # P<0.05 vs. siNC group, n=3

[2] = tested on: EGFR mRNA; test: Gene silencing efficiency of EGFR siRNA sequences complexed with Lipofectamine 2000 (qRT-PCR); format: cell-based, human; conditions: U87MG cells, 48 h, complexed with Lipofectamine 2000, EGFR mRNA by qRT-PCR, n=3
Method: The relative expression level of EGFR mRNA was tested by qRT-PCR.
The qRT-PCR and western blot analysis were conducted as previously described (Liu et al., [2014]).
as §1

Substance | stability (three 2′-O-Me modifications on both ends of both strands) ([1]; mouse serum, agarose gel electrophoresis) | silencing efficiency [2] | degradation in mouse serum after 24 h ([1]; 5 μL of 20 μM mixed with 5 μL mouse serum, 24 h, 1.2% non-denaturing agarose gel electrophoresis)
EGFR siRNA-C: Sense 5’mCmAmAAGUGUGUAACGGAmAmUmAdTdT-3’; antisense 5’mUmAmUUCCGUUACACACUmUmUmGdTdT-3’ (sense CAAAGUGUGUAACGGAAUATT; antisense UAUUCCGUUACACACUUUGTT; sugars from the 5' end m3 r13 m3 d2, backbone not given here; further chemistry not fully specified) | obviously improved | over 80% | 
unmodified RNA oligonucleotides: Sense 5’CAAAGUGUGUAACGGAAUAdTdT-3’; antisense 5’UAUUCCGUUACACACUUUGdTdT-3’ (sense rCrArArArGrUrGrUrGrUrArArCrGrGrArArUrAdTdT; antisense rUrArUrUrCrCrGrUrUrArCrArCrArCrUrUrUrGdTdT) |  |  | mostly degraded
